# According to patent US20240368122A1, “JAK2 INHIBITORS AND METHODS OF USE THEREOF” (RELAY THERAPEUTICS, INC., priority 2021, published 2024):
# Like-named read-outs stand apart in the source and are kept apart here.
# Experiments:
# [1] = tested on: TF1 JAK2 V617F STAT3 reporter; test: Cellular TF1 STAT3 assay (luciferase reporter), JAK2 V617F; type: cell-based; conditions: read-out: Cell PD-TF1 JAK2 V617F STAT3 (IC50)
# In short: (§1)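 Inhibition of JAK2 V617F-mediated STAT3/STAT5 signalling is measured by reporter luminescence in TF1 erythroleukemia cells treated overnight (18-20 h) with a 10-point compound series; DMSO serves as vehicle.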
# JAK2 JH1 WT (T842-G1132) = target: T1, JAK2 JH1 WT (T842-G1132) (Homo sapiens, UniProt O60674); test: Surface Plasmon Resonance (SPR) binding assay, JAK2 JH1 domain; conditions: SPR, JAK2 JH1 domain
# T1 construct: *JAK2 JH1 WT (T842-G1132) N-His60-avi-TEV; His6 (N); TEV cleavage site (N); purchased Biortus
# Method: Selected compounds of the present disclosure were tested in a Surface Plasmon Resonance (SPR) Assay to measure their binding kinetics and affinity for proteins of interest.
# Prepare buffer: 50 mM HEPES pH 7.5, 150 mM NaCl, 0.05% (v/v) Tween, and 10% (v/v) glycerol were combined and pH was adjusted to 7.5, then filtered. 5 mM DTT, was added, and buffer without DMSO was reserved for compound resuspension. 2% (v/v) DMSO was added for assay buffer, and separately 1% DMSO was used to make buffer for resuspending compounds.
# Prepare compounds: Using a Bravo liquid handler, 99 μL of 1% (v/v) DMSO assay buffer was added to 1 μL compounds in DMSO.
# Run 8K Method: Biotin CAPture (CAP) chip surface was regenerated prior to run by: Inserting CAP chip into Biacore 8K, prime machine with assay buffer with 2% (v/v) DMSO; Setting instrument temperature to 20° C.; Conditioning surface with NaOH/GdnHCl reagents from CAP chip kit (60 seconds, 10 μL/min); and Capturing oligo-Streptavidin (SA) reagent from CAP kit (600 seconds, 1 μL/min), expected capture ˜2500 RU. JAK2 JH1 or JH2 protein was immobilized by preparing a sample of 0.5 uM JH1 or 0.4 uM JH2 protein diluted in assay buffer without DMSO and supplemented with 10 uM of a selected compound of the invention as a stabilizer (370 seconds, 5 uL/min), expected capture ˜1000 RU. Remaining biotin sites on SA were blocked with 1 uM biotin (30 seconds, 20 uL/min), then equilibrated for 1800 seconds at 100 uL/min. Compounds being assayed were run in single cycle kinetics: 4 doses with a top concentration of 5 uM (JH1) or 500 nM (JH2), dilution factor of 3, at 20° C., for a contact time of 60 seconds, and a dissociation time of 300 seconds (JH1) or 1200 seconds (JH2), at a flow rate of 30 uL/min. The surface was completely regenerated after each compound is run, and JH1 or JH2 protein was immobilized fresh prior to each new compound. Data were fitted kinetically with 1:1 binding model using Biacore Insight Evaluation Software.
# [2] = tested on: TF1 JAK2 V617F STAT5 reporter; test: Cellular TF1 STAT5 assay (luciferase reporter), JAK2 V617F; type: cell-based; conditions: read-out: Cell PD TF1 V617F STAT5 (IC50)
# In short: as §1
# [3] = target: T2, JAK2 JH2 WT (V536-D812) [W659A, W777A, F794H solubilizing mutations] (Homo sapiens, UniProt O60674, F794H/W659A/W777A); test: Surface Plasmon Resonance (SPR) binding assay, JAK2 JH2 domain
# T2 construct: **JAK2 JH2 WT (V536-D812) [W659A, W777A, F794H solubilizing mutations]; C-thrombin-avi-His6; thrombin cleavage site (C); His6 (C); purchased Biortus
# In short: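 Kinetics came from 1:1 fits of single-cycle runs at 20 °C: four 3-fold dilutions from 5 uM for JH1 or 500 nM for JH2, 60 s association, and 300 s or 1200 s dissociation respectively. Protein was freshly captured per compound in the presence of 10 uM stabilizer compound, with running buffer of pH 7.5 HEPES/NaCl/glycerol/DTT plus 2% DMSO.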
# [4] = Homo sapiens, TF-1, TF1 cells, JAK2 V617F
# T1 sequence (O60674 842-1132): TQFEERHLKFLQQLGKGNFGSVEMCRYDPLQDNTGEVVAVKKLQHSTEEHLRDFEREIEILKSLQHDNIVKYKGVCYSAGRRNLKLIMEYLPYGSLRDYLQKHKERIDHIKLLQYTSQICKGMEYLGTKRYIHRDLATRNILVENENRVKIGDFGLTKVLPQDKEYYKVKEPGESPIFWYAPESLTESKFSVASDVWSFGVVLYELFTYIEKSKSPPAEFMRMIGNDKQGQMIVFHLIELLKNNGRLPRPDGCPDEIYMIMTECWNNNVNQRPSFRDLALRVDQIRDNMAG
# T2 sequence (O60674 536-812 W659A/W777A/F794H): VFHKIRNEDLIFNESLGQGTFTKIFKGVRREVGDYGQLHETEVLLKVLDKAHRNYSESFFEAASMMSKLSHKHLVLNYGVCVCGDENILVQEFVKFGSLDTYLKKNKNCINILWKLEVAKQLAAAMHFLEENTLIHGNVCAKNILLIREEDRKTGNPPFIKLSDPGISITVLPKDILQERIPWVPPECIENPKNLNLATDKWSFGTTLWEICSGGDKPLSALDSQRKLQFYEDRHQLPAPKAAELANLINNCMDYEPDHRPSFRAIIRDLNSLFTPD
SMILES,IC50 ([1]; TF1 JAK2 V617F) [nM],Kd (JAK2 JH1 WT (T842-G1132)) [nM],IC50 ([2]; TF1 JAK2 V617F) [nM],"Kd ([3]; SPR, JAK2 JH2 domain) [nM]","IC50 [1, 4] [nM]","IC50 [2, 4] [nM]",Kd [3] [nM]
CNC(=O)c1nnc(NC(=O)C2CC2)cc1Nc1cccc(-c2ccc(C(=O)NCc3cccn(C)c3=O)cc2)c1OC [Compound 1],500 to 5000,500 to 5000,500 to 5000,0.01 to 10,,,
"CNC(=O)c1nnc(NC(=O)C2CC2)cc1Nc1cccc(-c2ccc(C(=O)N(C)Cc3cccn(C)c3=O)cc2)c1OC [Compound 3, 6-(cyclopropanecarboxamido)-4-((2-methoxy-4′-(methyl((1-methyl-2-oxo-1,2-dihydropyridin-3-yl)methyl)carbamoyl)-[1,1′-biphenyl]-3-yl)amino)-N-methylpyridazine-3-carboxamide]",500 to 5000,5000 to 100000,500 to 5000,0.01 to 10,,,
CNC(=O)c1nnc(NC(=O)C2CC2)cc1Nc1cccc(-c2ccc(C(=O)NCc3cccn(C)c3=O)nc2)c1OC [Compound 4],500 to 5000,5000 to 100000,500 to 5000,0.01 to 10,,,
CNC(=O)c1nnc(NC(=O)C2CC2)cc1Nc1cccc(-c2ncc(NC(=O)Cc3cccn(C)c3=O)cn2)c1OC [Compound 6],5000 to 100000,500 to 5000,5000 to 100000,0.01 to 10,,,
CNC(=O)c1nnc(NC(=O)C2CC2)cc1Nc1cccc(-c2ccc(C(=O)NCc3cccn(C)c3=O)nn2)c1OC [Compound 8],500 to 5000,5000 to 100000,5000 to 100000,0.01 to 10,,,
CNC(=O)c1nnc(NC(=O)C2CC2)cc1Nc1cccc(-c2cnc(C(=O)NCc3cccn(C)c3=O)nc2)c1OC [Compound 9],500 to 5000,500 to 5000,5000 to 100000,0.01 to 10,,,
CNC(=O)c1nnc(NC(=O)C2CC2)cc1Nc1cccc(-c2ccc(C(=O)NCc3cccn(C)c3=O)c(C)c2)c1OC [Compound 10],500 to 5000,5000 to 100000,500 to 5000,0.01 to 10,,,
CNC(=O)c1nnc(NC(=O)C2CC2)cc1Nc1cccc(-c2ccc(C(=O)N(C)Cc3cc(C#N)ccn3)cc2)c1OC [Compound 11],500 to 5000,5000 to 100000,500 to 5000,0.01 to 10,,,
CNC(=O)c1nnc(NC(=O)C2CC2)cc1Nc1cccc(-c2ccc(C(=O)N(C)Cc3cnn(C)c3)nc2)c1OC [Compound 17],50 to 500,5000 to 100000,50 to 500,0.01 to 10,,,
CNC(=O)c1nnc(NC(=O)C2CC2)cc1Nc1cccc(-c2ccc(C(=O)N(C)Cc3cc(C#N)ccn3)nc2)c1OC [Compound 18],50 to 500,5000 to 100000,50 to 500,0.01 to 10,,,
CNC(=O)c1nnc(NC(=O)C2CC2)cc1Nc1cccc(-c2ccc(C(=O)N(C)Cc3ccn(C)n3)nc2)c1OC [Compound 26],50 to 500,5000 to 100000,50 to 500,0.01 to 10,,,
CNC(=O)c1nnc(NC(=O)C2CC2)cc1Nc1cccc(-c2cnc(C(=O)N(C)Cc3cc(C#N)ccn3)c(F)c2)c1OC [Compound 28],50 to 500,5000 to 100000,50 to 500,0.01 to 10,,,
CNC(=O)c1nnc(NC(=O)C2CC2)cc1Nc1cccc(-c2ccc(C(=O)N(C)Cc3cccnc3)nc2)c1OC [Compound 30],50 to 500,5000 to 100000,50 to 500,0.01 to 10,,,
CNC(=O)c1nnc(NC(=O)C2CC2)cc1Nc1cccc(-c2cnc(C(=O)N(C)Cc3cc(C#N)ccn3)cc2C)c1OC [Compound 32],500 to 5000,5000 to 100000,500 to 5000,0.01 to 10,,,
CNC(=O)c1nnc(NC(=O)C2CC2)cc1Nc1ccc(C)c(-c2ccc(C(=O)N(C)Cc3cc(C#N)ccn3)nc2)c1OC [Compound 33],10 to 50,5000 to 100000,10 to 50,0.01 to 10,,,
CNC(=O)c1nnc(NC(=O)C2CC2)cc1Nc1cccc(-c2cnn(C3CN(Cc4cccn5ccnc45)C3)c2)c1OC [Compound 373],,,,,50 to 500,50 to 500,0.01 to 10

SMILES,IC50 ([1]; TF1 JAK2 V617F) [nM],Kd (JAK2 JH1 WT (T842-G1132)) [nM],IC50 ([2]; TF1 JAK2 V617F) [nM],"Kd ([3]; SPR, JAK2 JH2 domain) [nM]","IC50 [1, 4] [nM]","IC50 [2, 4] [nM]",Kd [3] [nM]
CNC(=O)c1nnc(NC(=O)C2CC2)cc1Nc1cccc(-c2cnn(C3CN(Cc4cccc5nccn45)C3)c2)c1OC [Compound 374],,,,,50 to 500,50 to 500,0.01 to 10
COc1c(Nc2cc(NC(=O)C3CC3)nnc2-c2ncc[nH]2)ccc(C)c1-c1ccc(C(=O)N(C)Cc2cn(C)nc2C)nc1 [Compound 376],,,,,500 to 5000,500 to 5000,0.01 to 10
CNC(=O)c1nnc(NC(=O)C2CC2)cc1Nc1cccc(-c2cnn(C3CN(Cc4cccc(C(C)=O)n4)[C@H]3C)c2)c1OC (stereo partly drawn) [Compound 377],,,,,500 to 5000,500 to 5000,0.01 to 10
CNC(=O)c1nnc(NC(=O)C2CC2)cc1Nc1cccc(-c2cnn(C3CN(Cc4cccc(P(C)(C)=O)n4)C3)c2)c1OC [Compound 378],,,,,500 to 5000,500 to 5000,0.01 to 10
CNC(=O)c1nnc(NC(=O)C2CC2)cc1Nc1cccc(-c2ccc(C(=O)N(C)Cc3cc(P(C)(C)=O)ccn3)nc2)c1OC [Compound 380],,,,,5000 to 100000,5000 to 100000,0.01 to 10
CNC(=O)c1nnc(NC(=O)C2CC2)cc1Nc1cccc(-c2cnn(C3CN(Cc4cccc5c(F)cnn45)C3)c2)c1OC [Compound 381],,,,,50 to 500,50 to 500,0.01 to 10
CNC(=O)c1nnc(NC(=O)C2CC2)cc1Nc1cccc(-c2cnn(C3CN(Cc4cccc(C5(O)COC5)n4)C3)c2)c1OC [Compound 382],,,,,50 to 500,50 to 500,0.01 to 10
CNC(=O)c1nnc(NC(=O)C2CC2)cc1Nc1cccc(-c2cnn([C@H]3C[C@@H](N(C)c4ccccn4)C3)c2)c1OC [Compound 383],,,,,5000 to 100000,5000 to 100000,0.01 to 10
CNC(=O)c1nnc(NC(=O)C2CC2)cc1Nc1cccc(-c2cnn(C3CN(Cc4cccc(C(=O)N(C)CCN)n4)C3)c2)c1OC [Compound 384],,,,,500 to 5000,500 to 5000,0.01 to 10
CNC(=O)c1nnc(NC(=O)C2CC2)cc1Nc1cccc(-c2ccc(C3CN(Cc4ccc5c(n4)CCC5)C3)nc2)c1OC [Compound 385],,,,,5000 to 100000,500 to 5000,50 to 500
CNC(=O)c1nnc(NC(=O)C2CC2)cc1Nc1cccc(-c2ccc(C3CN(Cc4ccc(Cl)cn4)C3)nc2)c1OC [Compound 388],,,,,5000 to 100000,500 to 5000,50 to 500
CCOc1cccc(CN2CC(c3ccc(-c4cccc(Nc5cc(NC(=O)C6CC6)nnc5C(=O)NC)c4OC)cn3)C2)n1 [Compound 389],,,,,5000 to 100000,500 to 5000,50 to 500
CNC(=O)c1nnc(NC(=O)C2CC2)cc1Nc1cccc(-c2ccc(C3CN(Cc4cccc(C(F)(F)F)n4)C3)nc2)c1OC [Compound 391],,,,,5000 to 100000,500 to 5000,10 to 50
CCS(=O)(=O)c1ccnc(CN(C)C(=O)c2ccc(-c3cccc(Nc4cc(NC(=O)C5CC5)nnc4C(=O)NC)c3OC)cn2)c1 [Compound 394],,,,,10 to 50,10 to 50,0.01 to 10
[2H]C([2H])(c1cccnn1)N1CC(n2cc(-c3cccc(Nc4cc(NC(=O)C5CC5)nnc4C(=O)NC)c3OC)cn2)C1 [Compound 408],,,,0.01 to 10,50 to 500,50 to 500,
[2H]C([2H])(c1cccc(C#N)n1)N1CC(n2cc(-c3cccc(Nc4cc(NC(=O)C5CC5)nnc4C(=O)NC)c3OC)cn2)C1 [Compound 409],,,,0.01 to 10,50 to 500,50 to 500,
